Converted amounts (≈) assume the structure as drawn.
Assays:
Type in all cases: functional
Staphylococcus aureus [1] = assay: Antibacterial activity against methicillin-sensitive Staphylococcus aureus after 16 hrs by agar dilution method
Staphylococcus aureus [2] = assay: Antibacterial activity against Staphylococcus aureus […] after 16 hrs by agar dilution method
Streptococcus pneumoniae = assay: Antibacterial activity against penicillin-resistant Streptococcus pneumoniae after 16 hrs by agar dilution method
Staphylococcus aureus [3] = assay: Antibacterial activity against methicillin-resistant Staphylococcus aureus after 16 hrs by agar dilution method
[4] = system: Staphylococcus epidermidis; assay: Antibacterial activity against methicillin-sensitive Staphylococcus epidermidis after 16 hrs by agar dilution method
[5] = system: Staphylococcus epidermidis; assay: Antibacterial activity against methicillin-resistant Staphylococcus epidermidis after 16 hrs by agar dilution method

Structure (SMILES) | MIC (Staphylococcus aureus [1]) [µg/mL] | MIC (Staphylococcus aureus [2]) [µg/mL] | MIC (Streptococcus pneumoniae) [µg/mL] | MIC (Staphylococcus aureus [3]) [µg/mL] | MIC [4] [µg/mL] | MIC [5] [µg/mL]
C=C[C@]1(C)C[C@@H](OC(=O)CSc2cncc(/C=N/OCC)c2)[C@]2(C)[C@H](C)CC[C@]3(CCC(=O)[C@H]32)[C@@H](C)[C@@H]1O | 1 (≈ 1.84 µM) | 1 (≈ 1.84 µM) | 1 (≈ 1.84 µM) | 1 (≈ 1.84 µM) | 1 (≈ 1.84 µM) | 1 (≈ 1.84 µM)
C=C[C@]1(C)C[C@@H](OC(=O)CSc2ccc([N+](=O)[O-])cn2)[C@]2(C)[C@H](C)CC[C@]3(CCC(=O)[C@H]32)[C@@H](C)[C@@H]1O | 0.25 (≈ 0.484 µM) | 1 (≈ 1.94 µM) | 0.5 (≈ 0.968 µM) | 0.5 (≈ 0.968 µM) | 0.25 (≈ 0.484 µM) | 0.25 (≈ 0.484 µM)
C=C[C@]1(C)C[C@@H](OC(=O)CSc2ncccc2[N+](=O)[O-])[C@]2(C)[C@H](C)CC[C@]3(CCC(=O)[C@H]32)[C@@H](C)[C@@H]1O | 0.125 (≈ 0.242 µM) | 0.125 (≈ 0.242 µM) | 0.125 (≈ 0.242 µM) | 0.063 (≈ 0.122 µM) | 0.125 (≈ 0.242 µM) | 0.063 (≈ 0.122 µM)
C=C[C@]1(C)C[C@@H](OC(=O)CSc2cc(CO)ccn2)[C@]2(C)[C@H](C)CC[C@]3(CCC(=O)[C@H]32)[C@@H](C)[C@@H]1O | 0.125 (≈ 0.249 µM) | 0.125 (≈ 0.249 µM) | 0.125 (≈ 0.249 µM) | 0.125 (≈ 0.249 µM) | 0.125 (≈ 0.249 µM) | 0.125 (≈ 0.249 µM)
C=C[C@]1(C)C[C@@H](OC(=O)CSc2ncccc2CO)[C@]2(C)[C@H](C)CC[C@]3(CCC(=O)[C@H]32)[C@@H](C)[C@@H]1O | 0.125 (≈ 0.249 µM) | 0.125 (≈ 0.249 µM) | 0.125 (≈ 0.249 µM) | 0.125 (≈ 0.249 µM) | 0.063 (≈ 0.126 µM) | 0.125 (≈ 0.249 µM)
C=C[C@]1(C)C[C@@H](OC(=O)CSc2ncccc2C#N)[C@]2(C)[C@H](C)CC[C@]3(CCC(=O)[C@H]32)[C@@H](C)[C@@H]1O | 0.5 (≈ 1.01 µM) | 1 (≈ 2.01 µM) | 0.5 (≈ 1.01 µM) | 0.5 (≈ 1.01 µM) | 0.5 (≈ 1.01 µM) | 0.5 (≈ 1.01 µM)
C=C[C@]1(C)C[C@@H](OC(=O)CSc2cc(C#N)ccn2)[C@]2(C)[C@H](C)CC[C@]3(CCC(=O)[C@H]32)[C@@H](C)[C@@H]1O | 0.063 (≈ 0.127 µM) | 0.125 (≈ 0.252 µM) | 0.063 (≈ 0.127 µM) | 0.063 (≈ 0.127 µM) | 0.063 (≈ 0.127 µM) | 0.063 (≈ 0.127 µM)
C=C[C@]1(C)C[C@@H](OC(=O)CSc2ccc(N)cn2)[C@]2(C)[C@H](C)CC[C@]3(CCC(=O)[C@H]32)[C@@H](C)[C@@H]1O | 0.063 (≈ 0.129 µM) | 0.125 (≈ 0.257 µM) | 0.063 (≈ 0.129 µM) | 0.063 (≈ 0.129 µM) | 0.063 (≈ 0.129 µM) | 0.063 (≈ 0.129 µM)
C=C[C@]1(C)C[C@@H](OC(=O)CSc2ncccc2N)[C@]2(C)[C@H](C)CC[C@]3(CCC(=O)[C@H]32)[C@@H](C)[C@@H]1O | 0.25 (≈ 0.514 µM) | 0.5 (≈ 1.03 µM) | 0.25 (≈ 0.514 µM) | 0.25 (≈ 0.514 µM) | 0.125 (≈ 0.257 µM) | 0.125 (≈ 0.257 µM)
C=C[C@]1(C)C[C@@H](OC(=O)CSc2cc(/C=N/O)ccn2)[C@]2(C)[C@H](C)CC[C@]3(CCC(=O)[C@H]32)[C@@H](C)[C@@H]1O | 0.063 (≈ 0.122 µM) | 0.125 (≈ 0.243 µM) | 0.25 (≈ 0.486 µM) | 0.125 (≈ 0.243 µM) | 0.063 (≈ 0.122 µM) | 0.125 (≈ 0.243 µM)
C=C[C@]1(C)C[C@@H](OC(=O)CSc2cc(/C=N/N)ccn2)[C@]2(C)[C@H](C)CC[C@]3(CCC(=O)[C@H]32)[C@@H](C)[C@@H]1O | 0.5 (≈ 0.973 µM) | 0.5 (≈ 0.973 µM) | 0.5 (≈ 0.973 µM) | 0.5 (≈ 0.973 µM) | 0.5 (≈ 0.973 µM) | 0.5 (≈ 0.973 µM)
C=C[C@]1(C)C[C@@H](OC(=O)CSc2ccncc2N)[C@]2(C)[C@H](C)CC[C@]3(CCC(=O)[C@H]32)[C@@H](C)[C@@H]1O | 0.063 (≈ 0.129 µM) | 0.125 (≈ 0.257 µM) | 0.125 (≈ 0.257 µM) | 0.063 (≈ 0.129 µM) | 0.063 (≈ 0.129 µM) | 0.063 (≈ 0.129 µM)
C=C[C@]1(C)C[C@@H](OC(=O)CSc2ccnc(N)c2)[C@]2(C)[C@H](C)CC[C@]3(CCC(=O)[C@H]32)[C@@H](C)[C@@H]1O | 0.063 (≈ 0.129 µM) | 0.063 (≈ 0.129 µM) | 0.063 (≈ 0.129 µM) | 0.063 (≈ 0.129 µM) | 0.063 (≈ 0.129 µM) | 0.063 (≈ 0.129 µM)
C=C[C@]1(C)C[C@@H](OC(=O)CSc2ccncc2CO)[C@]2(C)[C@H](C)CC[C@]3(CCC(=O)[C@H]32)[C@@H](C)[C@@H]1O | 0.063 (≈ 0.126 µM) | 0.063 (≈ 0.126 µM) | 0.125 (≈ 0.249 µM) | 0.063 (≈ 0.126 µM) | 0.063 (≈ 0.126 µM) | 0.063 (≈ 0.126 µM)
C=C[C@]1(C)C[C@@H](OC(=O)CSc2ccnc(CO)c2)[C@]2(C)[C@H](C)CC[C@]3(CCC(=O)[C@H]32)[C@@H](C)[C@@H]1O | 0.063 (≈ 0.126 µM) | 0.063 (≈ 0.126 µM) | 0.063 (≈ 0.126 µM) | 0.031 (≈ 0.0618 µM) | 0.031 (≈ 0.0618 µM) | 0.031 (≈ 0.0618 µM)
C=C[C@]1(C)C[C@@H](OC(=O)CSc2cncc(NC(=O)[C@H](C)N)c2)[C@]2(C)[C@H](C)CC[C@]3(CCC(=O)[C@H]32)[C@@H](C)[C@@H]1O | 0.125 (≈ 0.224 µM) | 0.125 (≈ 0.224 µM) | 0.125 (≈ 0.224 µM) | 0.125 (≈ 0.224 µM) | 0.125 (≈ 0.224 µM) | 0.125 (≈ 0.224 µM)
C=C[C@]1(C)C[C@@H](OC(=O)CSc2cncc(NC(=O)[C@@H](N)C(C)C)c2)[C@]2(C)[C@H](C)CC[C@]3(CCC(=O)[C@H]32)[C@@H](C)[C@@H]1O | 0.125 (≈ 0.213 µM) | 0.25 (≈ 0.427 µM) | 0.125 (≈ 0.213 µM) | 0.125 (≈ 0.213 µM) | 0.125 (≈ 0.213 µM) | 0.125 (≈ 0.213 µM)
